Laboratory results from patent US20080227710A1, “Use of Conjugates of Doxorubicin with Lactosaminated Albumin” (priority 2005, published 2008).

Experiment: DOXO concentrations in HCCs, heart and intestine of rats with DENA-induced HCCs
Format: in vivo, rat
Settings: 4 h after i.v. injection, DOXO measured as free drug, mean ± standard error
Experimental: HCCs were induced by diethyInitrosamine (DENA) given in the drinking water (100 mg/l) for 8 weeks. […] Compounds were injected in the dorsal vein of penis, in a volume of 10 μl/10 g body weight, under isoflurane anaesthesia. For each compound four rats were used. Four hours after the injection the animals were killed under isoflurane anaesthesia. Organs were rapidly removed and frozen and neoplastic nodules were accurately dissected from the surrounding liver. A part of each tumor nodule was frozen; the other part was fixed in 10% formalin and processed for histology. Samples of frozen organs and nodules were used for radioactivity count and determination of DOXO levels. DOXO was measured according to Bots A M, et al. (Analysis of adriamycin . . . J Chromatogr 1983; 272: 421-427), with modifications (Di Stefano G, et al. Doxorubicin coupled to lactosaminated . . . Dig Liver Dis 2003; 35: 428-433).

## COc1cccc2c1C(=O)c1c(O)c3c(c(O)c1C2=O)C[C@@](O)(C(=O)CO)C[C@@H]3O[C@H]1C[C@H](N)[C@H](O)[C@H](C)O1 [DOXO, doxorubicin]
heart
  DOXO concentration, nmoles DOXO/g, Heart: 4.7 ± 0.3 nmoles DOXO/g
intestine
  DOXO concentration, nmoles DOXO/g, Intestine: 4.2 ± 0.6 nmoles DOXO/g
Moderately differentiated HCCs
  DOXO concentration, nmoles DOXO/g, MD HCCs: 3.1 ± 0.4 nmoles DOXO/g
Poorly differentiated HCCs
  DOXO concentration, nmoles DOXO/g, PD HCCs: 3.6 ± 0.4 nmoles DOXO/g
Well differentiated HCCs
  DOXO concentration, nmoles DOXO/g, WD HCCs: 3.4 ± 0.6 nmoles DOXO/g
